The values below come from US20120309739A1, “AKT / PKB INHIBITORS” (ALMAC DISCOVERY LIMITED, priority 2009, published 2012).

Counter-ions that a name gives are not always drawn.

Format in all cases: biochemical
One assay concerns the target T1, AKT3 (Homo sapiens, UniProt Q9Y243).
T1 construct: purchased SignalChem
As to the kind of experiment: AKT Kinase Assay (IMAP fluorescent polarisation) vs AKT3. The settings on record: activated AKT3, FAM Crosstide substrate. The gist of the method:
(§1)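 IMAP fluorescence-polarisation read-out (485/528 nm) of 5′FAM-Crosstide phosphorylation; IC50 fitted by non-linear regression from % inhibition against vehicle. Fourteen-point half-log compound dilutions sat 45 min at room temperature with activated isoform at linear-range amount. ATP and substrate followed for 1 h, then a 1 h binding-reagent stop.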

The target in a further assay is T2, AKT1 (Homo sapiens, UniProt P31749).
T2 construct: purchased SignalChem
T2 sequence (P31749 whole entry): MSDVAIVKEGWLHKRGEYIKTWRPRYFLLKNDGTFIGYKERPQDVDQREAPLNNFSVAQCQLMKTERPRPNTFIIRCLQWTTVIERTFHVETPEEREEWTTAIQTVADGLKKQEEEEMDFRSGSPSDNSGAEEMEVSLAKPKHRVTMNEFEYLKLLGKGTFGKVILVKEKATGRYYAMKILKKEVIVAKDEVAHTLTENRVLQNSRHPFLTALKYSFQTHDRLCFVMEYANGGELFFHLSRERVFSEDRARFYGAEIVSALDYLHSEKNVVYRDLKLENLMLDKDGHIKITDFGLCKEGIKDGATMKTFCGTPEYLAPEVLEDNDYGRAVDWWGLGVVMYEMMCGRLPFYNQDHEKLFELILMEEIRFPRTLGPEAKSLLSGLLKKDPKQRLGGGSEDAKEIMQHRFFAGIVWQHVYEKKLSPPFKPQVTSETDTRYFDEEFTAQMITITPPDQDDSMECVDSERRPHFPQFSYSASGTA
As to the kind of experiment: AKT Kinase Assay (IMAP fluorescent polarisation) vs AKT1. The settings on record: activated AKT1, FAM Crosstide substrate. The gist of the method:
as §1

Another assay addresses T3, AKT2 (Homo sapiens, UniProt P31751).
T3 construct: purchased SignalChem
As to the kind of experiment: AKT Kinase Assay (IMAP fluorescent polarisation) vs AKT2. The settings on record: activated AKT2, FAM Crosstide substrate. The gist of the method: as §1

T3 sequence (P31751 whole entry): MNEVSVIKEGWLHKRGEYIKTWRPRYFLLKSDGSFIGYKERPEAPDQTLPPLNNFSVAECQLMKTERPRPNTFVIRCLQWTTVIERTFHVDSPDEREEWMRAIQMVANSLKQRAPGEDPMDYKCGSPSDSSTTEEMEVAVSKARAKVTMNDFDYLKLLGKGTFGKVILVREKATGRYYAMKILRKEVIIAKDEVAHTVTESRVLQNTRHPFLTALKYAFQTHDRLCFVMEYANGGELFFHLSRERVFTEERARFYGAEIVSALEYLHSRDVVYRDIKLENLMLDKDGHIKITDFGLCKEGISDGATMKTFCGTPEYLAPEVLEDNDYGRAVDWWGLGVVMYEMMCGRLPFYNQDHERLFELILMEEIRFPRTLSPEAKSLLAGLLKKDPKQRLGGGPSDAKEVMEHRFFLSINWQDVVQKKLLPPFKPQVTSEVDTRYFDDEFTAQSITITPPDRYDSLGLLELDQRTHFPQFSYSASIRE
T1 sequence (Q9Y243 whole entry): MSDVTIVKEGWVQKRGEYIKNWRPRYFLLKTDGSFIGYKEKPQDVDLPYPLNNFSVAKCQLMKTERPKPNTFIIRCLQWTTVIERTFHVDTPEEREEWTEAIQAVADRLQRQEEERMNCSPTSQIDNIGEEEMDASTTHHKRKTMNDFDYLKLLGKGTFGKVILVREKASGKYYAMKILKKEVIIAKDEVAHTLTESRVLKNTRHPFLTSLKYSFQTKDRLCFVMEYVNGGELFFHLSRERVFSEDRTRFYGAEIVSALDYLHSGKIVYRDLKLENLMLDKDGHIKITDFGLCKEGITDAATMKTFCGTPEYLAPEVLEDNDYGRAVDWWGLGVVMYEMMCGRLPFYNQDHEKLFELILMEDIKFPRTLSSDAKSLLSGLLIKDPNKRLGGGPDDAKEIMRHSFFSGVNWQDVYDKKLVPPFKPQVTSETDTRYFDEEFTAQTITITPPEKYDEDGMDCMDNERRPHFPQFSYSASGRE

Turning to `Cn1cc(-c2cn(CCF)c(=O)c3c(-c4ccccc4)c(-c4ccc(C5(N)CCC5)cc4)oc23)cn1` [Example 113, 2-(4-(1-Aminocyclobutyl)phenyl)-5-(2-fluoroethyl)-7-(1-methyl-1H-pyrazol-4-yl)-3-phenylfuro[3,2-d]pyridin-4(5H)-one], the IC50 – broadly, the concentration needed to halve the response being measured – lay in the range of 1000 to 10000 nM at AKT3, 100 to 1000 nM at AKT1 and 100 to 1000 nM on AKT2.

`Cn1cc(-c2cn(C)c(=O)c3c(-c4ccccc4)c(-c4ccc(C5(N)CCC5)cc4)oc23)cn1` [Example 114, 2-(4-(1-Aminocyclobutyl)phenyl)-5-methyl-7-(1-methyl-1H-pyrazol-4-yl)-3-phenylfuro[3,2-c]pyridin-4(5H)-one]: the IC50 is 1000 to 10000 nM at AKT3, 100 to 1000 nM at AKT1 and 100 to 1000 nM on AKT2.

As for `Cn1cc(-c2cncnc2)c2oc(-c3ccc(C4(N)CCC4)cc3)c(-c3ccccc3)c2c1=O` [Example 115, 2-(4-(1-Aminocyclobutyl)phenyl)-5-methyl-3-phenyl-7-(pyrimidin-5-yl)furo[3,2-c]pyridin-4(5H)-one], the IC50 on AKT3 is greater than 10000 nM; at AKT1, 100 to 1000 nM; on AKT2, 1000 to 10000 nM.

For the molecule `Cn1cc(-c2ccn[nH]2)c2oc(-c3ccc(C4(N)CCC4)cc3)c(-c3ccccc3)c2c1=O` [Example 116, 2-(4-(1-Aminocyclobutyl)phenyl)-5-methyl-3-phenyl-7-(1H-pyrazol-5-yl)furo[3,2-c]pyridin-4(5H)-one], the IC50 at AKT3 is greater than 10000 nM; on AKT1, no more than 100 nM; at AKT2, 100 to 1000 nM.

On to `Cn1cc(C(N)=O)c2oc(-c3ccc(C4(N)CCC4)cc3)c(-c3ccccc3)c2c1=O` [Example 117, 2-(4-(1-Aminocyclobutyl)phenyl)-5-methyl-4-oxo-3-phenyl-4,5-dihydrofuro[3,2-c]pyridine-7-carboxamide], for which the IC50 on AKT3 lay within 1000 to 10000 nM; on AKT1 it was 100 to 1000 nM; at AKT2 it was 100 to 1000 nM.

As to `COC(=O)c1cn(C)c(=O)c2c(-c3ccccc3)c(-c3ccc(C4(N)CCC4)cc3)oc12` [Example 118, Methyl 2-(4-(1-aminocyclobutyl)phenyl)-5-methyl-4-oxo-3-phenyl-4,5-dihydrofuro[3,2-c]pyridine-7-carboxylate], the IC50 at AKT3 is 1000 to 10000 nM; on AKT1, no more than 100 nM; on AKT2 it was 100 to 1000 nM.

Turning to `CNC(=O)c1cn(C)c(=O)c2c(-c3ccccc3)c(-c3ccc(C4(N)CCC4)cc3)oc12` [Example 119, 2-(4-(1-Aminocyclobutyl)phenyl)-N,5-dimethyl-4-oxo-3-phenyl-4,5-dihydrofuro[3,2-c]pyridine-7-carboxamide], the IC50 at AKT3 is greater than 10000 nM; at AKT1, 100 to 1000 nM; on AKT2, 100 to 1000 nM.

On to `Cn1cc(C(=O)NCCO)c2oc(-c3ccc(C4(N)CCC4)cc3)c(-c3ccccc3)c2c1=O` [Example 120, 2-(4-(1-Aminocyclobutyl)phenyl)-N-(2-hydroxyethyl)-5-methyl-4-oxo-3-phenyl-4,5-dihydrofuro[3,2-c]pyridine-7-carboxamide], for which the 50% inhibitory concentration (IC50) is greater than 10000 nM at AKT3, 100 to 1000 nM at AKT1 and 100 to 1000 nM on AKT2.

As to `NC1(c2ccc(-c3oc4nc(NCCO)n(CC(F)(F)F)c(=O)c4c3-c3ccccc3)cc2)CCC1` [Example 121, 6-(4-(1-Aminocyclobutyl)phenyl)-2-((2-hydroxyethyl)amino)-5-phenyl-3-(2,2,2-trifluoroethyl)furo[2,3-d]pyrimidin-4(3H)-one], the IC50 is 1000 to 10000 nM at AKT3, 100 to 1000 nM on AKT1 and no more than 100 nM at AKT2.

In the case of `CNc1nc2oc(-c3ccc(C4(N)CCC4)cc3)c(-c3ccccc3)c2c(=O)n1CC(F)(F)F` [Example 122, 6-(4-(1-Aminocyclobutyl)phenyl)-2-(methylamino)-5-phenyl-3-(2,2,2-trifluoroethyl)furo[2,3-d]pyrimidin-4(3H)-one], the IC50 at AKT3 was 1000 to 10000 nM; at AKT1 it was 100 to 1000 nM; at AKT2 it was no more than 100 nM.

Take `Cc1nc2oc(-c3ccc(C4(N)CCC4)cc3)c(-c3ccccc3)c2c(=O)n1CC(F)(F)F` [Example 123, 6-(4-(1-Aminocyclobutyl)phenyl)-2-methyl-5-phenyl-3-(2,2,2-trifluoroethyl)furo[2,3-d]pyrimidin-4(3H)-one]: the IC50 on AKT3 is 1000 to 10000 nM; at AKT1 it was 100 to 1000 nM; at AKT2 it was no more than 100 nM.

Turning to `Cn1c(=O)[nH]c2oc(-c3ccc(C4(N)CCC4)cc3)c(-c3ccccc3)c2c1=O` [Example 124, 6-(4-(1-Aminocyclobutyl)phenyl)-3-methyl-5-phenylfuro[2,3-d]pyrimidine-2,4(1H,3H)-dione hydrochloride], the IC50 is greater than 10000 nM at AKT3, 100 to 1000 nM on AKT1 and 100 to 1000 nM on AKT2.

For `Cn1c(=O)c2c(-c3ccccc3)c(-c3ccc(C4(N)CCC4)cc3)oc2n(C)c1=O` [Example 125, 6-(4-(1-Aminocyclobutyl)phenyl)-1,3-dimethyl-5-phenylfuro[2,3-d]pyrimidine-2,4(1H,3H)-dione], the IC50 was greater than 10000 nM at AKT3, 100 to 1000 nM on AKT1 and 1000 to 10000 nM on AKT2.

As for `COc1nccc2c(-c3ccccc3)c(-c3ccc(C4(N)CCC4)cc3)oc12` [Example 126, 1-(4-(7-Methoxy-3-phenylfuro[2,3-c]pyridin-2-yl)phenyl)cyclobutanamine], the IC50 was greater than 10000 nM on AKT3, 100 to 1000 nM on AKT1 and 100 to 1000 nM at AKT2.

As to `COc1nccc2c(I)c(-c3ccc(C4(N)CCC4)cc3)oc12` [Example 127, 1-(4-(3-Iodo-7-methoxyfuro[2,3-c]pyridin-2-yl)phenyl)cyclobutanamine], the IC50 on AKT3 is greater than 10000 nM; at AKT1, greater than 10000 nM; at AKT2 it was 1000 to 10000 nM.

On to `NC1(c2ccc(-c3oc4c(=O)[nH]ccc4c3-c3ccccc3)cc2)CCC1` [Example 128, 2-(4-(1-Aminocyclobutyl)phenyl)-3-phenylfuro[2,3-d]pyridin-7(6H)-one], for which the IC50 on AKT3 was 1000 to 10000 nM; on AKT1, 100 to 1000 nM; on AKT2, 1000 to 10000 nM.

On to `Cn1ccc2c(-c3ccccc3)c(-c3ccc(C4(N)CCC4)cc3)oc2c1=O` [Example 129, 2-(4-(1-Aminocyclobutyl)phenyl)-6-methyl-3-phenylfuro[2,3-c]pyridin-7(6H)-one], for which the figures for the IC50 on AKT3, at AKT1 and on AKT2 were 1000 to 10000 nM, 100 to 1000 nM and 100 to 1000 nM, respectively.

Turning to `NC1(c2ccc(-c3oc4c(=O)n(CCF)ccc4c3-c3ccccc3)cc2)CCC1` [Example 130, 2-(4-(1-Aminocyclobutyl)phenyl)-6-(2-fluoroethyl)-3-phenylfuro[2,3-c]pyridin-7(6H)-one], the values for the IC50 at AKT3, at AKT1 and on AKT2 were greater than 10000 nM, 1000 to 10000 nM and 100 to 1000 nM, respectively.

As for `NC1(c2ccc(-c3oc4c(=O)n(CCCO)ccc4c3-c3ccccc3)cc2)CCC1` [Example 131, 2-(4-(1-Aminocyclobutyl)phenyl)-6-(3-hydroxypropyl)-3-phenylfuro[2,3-c]pyridin-7(6H)-one], the results for the IC50 on AKT3, at AKT1 and on AKT2 were 1000 to 10000 nM, 1000 to 10000 nM and 100 to 1000 nM, respectively.

With `COc1ncc(Br)c2c(-c3ccccc3)c(-c3ccc(C4(N)CCC4)cc3)oc12` [Example 132, 1-(4-(4-Bromo-7-methoxy-3-phenylfuro[2,3-c]pyridin-2-yl)phenyl)cyclobutanamine], the IC50 was greater than 10000 nM at AKT3, 100 to 1000 nM on AKT1 and 100 to 1000 nM at AKT2.

For the molecule `NC1(c2ccc(-c3oc4ccnc(-c5cn[nH]c5)c4c3-c3ccccc3)cc2)CCC1` [Example 133, 1-(4-(3-Phenyl-4-(1H-pyrazol-4-yl)furo[3,2-c]pyridin-2-yl)phenyl)cyclobutanamine], the IC50 at AKT3 is greater than 10000 nM; on AKT1, 1000 to 10000 nM; on AKT2, 1000 to 10000 nM.

Consider `NC1(c2ccc(-c3oc4ncc(Cl)nc4c3-c3ccccc3)cc2)CCC1` [Example 134, 1-(4-(2-Chloro-7-phenylfuro[2,3-b]pyrazin-6-yl)phenyl)cyclobutanamine], for which the IC50 at AKT3 is greater than 10000 nM; at AKT1, 100 to 1000 nM; at AKT2 it was 1000 to 10000 nM.

As for `NC1(c2ccc(-c3oc4ncc(-c5cn[nH]c5)nc4c3-c3ccccc3)cc2)CCC1` [Example 135, 1-(4-(7-Phenyl-2-(1H-pyrazol-4-yl)furo[2,3-b]pyrazin-6-yl)phenyl)cyclobutanamine], the half-inhibitory concentration (IC50) at AKT3, on AKT1 and at AKT2 was 100 to 1000 nM throughout.

Take `Cn1cc(-c2cnc3oc(-c4ccc(C5(N)CCC5)cc4)c(-c4ccccc4)c3n2)cn1` [Example 136, 1-(4-(2-(1-Methyl-1H-pyrazol-4-yl)-7-phenylfuro[2,3-b]pyrazin-6-yl)phenyl)cyclobutanamine]: the IC50 was greater than 10000 nM at AKT3, 1000 to 10000 nM on AKT1 and 1000 to 10000 nM at AKT2.

For the molecule `Cn1nccc1-c1cnc2oc(-c3ccc(C4(N)CCC4)cc3)c(-c3ccccc3)c2n1` [Example 137, 1-(4-(2-(1-methyl-1H-pyrazol-5-yl)-7-phenylfuro[2,3-b]pyrazin-6-yl)phenyl)cyclobutanamine], the IC50 on AKT3 is greater than 10000 nM; at AKT1, 100 to 1000 nM; at AKT2 it was 1000 to 10000 nM.

Turning to `NC1(c2ccc(-c3oc4ncc(C5CC5)nc4c3-c3ccccc3)cc2)CCC1` [Example 138, 1-(4-(2-Cyclopropyl-7-phenylfuro[2,3-b]pyrazin-6-yl)phenyl)cyclobutanamine], the values for the IC50 on AKT3, at AKT1 and on AKT2 were 1000 to 10000 nM, 100 to 1000 nM and 100 to 1000 nM, respectively.

Regarding `NC1(c2ccc(-c3oc4ncc(-c5ccccc5)nc4c3-c3ccccc3)cc2)CCC1` [Example 139, 1-(4-(2,7-Diphenylfuro[2,3-b]pyrazin-6-yl)phenyl)cyclobutanamine, HCl], the IC50 on AKT3, on AKT1 and at AKT2 was 1000 to 10000 nM in each case.
